Experimental data as given in patent publication US20030157026A1, “Photodynamic diagnosis and therapy for insulin-dependent diabetes mellitus” (priority 2001, published 2003).

Experiments:
Type in all cases: in vivo
[1] = test system: macrophages having infiltrated the inflammatory sites of Langerhans islets; test: Uptake of conventional PDT photosensitizers into macrophages in the pancreas of a mammal with IDDM; details: no test described
[2] = test system: macrophages having infiltrated the islets of Langerhans; test: Test Example 1: fluorescence localisation in frozen pancreatic sections after i.v. administration to BB rats with onset of IDDM; details: 5 mg/kg via tail vein, pancreas excised 1 hour after administration, 664 nm laser (same result with 405 nm UV / 672 nm fluorescence)
Description: From 60 days after birth, the BB rats were examined every day for the urine sugar level and blood sugar level by using GLUTEST SENSOR (Sanwa Kagaku Co., Ltd., Japan). […] The excised pancreases were frozen in dry ice/acetone, to prepare frozen pancreatic sections of 5 μm in thickness. The frozen pancreatic sections were irradiated with a semiconductor laser light of 664 nm (Matsushita Industrial Equipment Co., Ltd., Japan). An image of fluorescence as emitted by mono-L-aspartyl chlorin e6 in the frozen pancreatic section was observed under a fluorescence microscope equipped with a notched filter for cutting 664 nm wavelength (made by Carl Zeiss). […]
Further, the places of the pancreas section which indicated the previously observed fluorescence of mono-L-aspartyl chlorin e6 were confirmed to be consistent with the sites where the macrophages were present in the pancreas sections. […] When a method comprising irradiation of a UV ray of a wavelength of 405 nm and observing a fluorescence at 672 nm with a cut filter for cutting light rays of wavelengths of not more than 600 nm was used for the observation of the fluorescence of mono-L-aspartyl chlorin e6, there could again be obtained the same result as that obtained in the above-described method comprising irradiation of the 664-nm semiconductor laser.

[3] = test system: BB rats with onset of IDDM; test: Test Example 3: photodynamic therapy of IDDM in BB rats (664-nm laser light), survival rate
Protocol: From 60 days after birth, BB rats (16 rats per group) were examined every day for the urine sugar level and blood sugar level, to confirm the time of the onset of IDDM. […] Photodynamic therapy of IDDM was thus conducted once, and thereafter, the survival rate (%) of the BB rats were evaluated during the breeding for subsequent […].
On the other hand, the survival rate (%) of the control group of rats (untreated) was about 65% on Day 6 after the start of the test, and all rats had died on Day 22 after the start of the test.
The survival rate (%) of rats under test was evaluated by the following equation: [formula]

[4] = BB rats treated by the photodynamic therapy

CCOC(=O)C1=Cc2c3nc(cc4nc(cc5[n-]c(cc6[n-]c2c(C)c6CC)c(C)c5CC)C(C)=C4CC)[C@@H](C)[C@]13CC.[Cl-].[Cl-].[Sn] (racemic) [rostaporfin]
uptake into macrophages when each singly administered [1]: selectively be uptaken by and into the macrophages

C=CC1=C(C)C2=CC3=C(/C=C/NO)C(C)(O)C(=CC4=NC(=CC5=NC(=CC1=N2)C(C)=C5CCC(=O)N[C@@H](CC(=O)[O-])C(=O)[O-])C(CCC(=O)N[C@@H](CC(=O)[O-])C(=O)[O-])=C4C)N3.[Na+].[Na+].[Na+].[Na+] (stereo partly drawn) [ATX-S10]
uptake into macrophages when each singly administered [1]: selectively be uptaken by and into the macrophages

C=Cc1c(C)c2cc3nc(c(CC(=O)O)c4[nH]c(cc5nc(cc1[nH]2)C(C)=C5CC)c(C)c4C(=O)O)[C@@H](CCC(=O)O)[C@@H]3C [chlorin e6]
uptake into macrophages when each singly administered [1]: selectively be uptaken by and into the macrophages

C=Cc1c(C)c2cc3nc(c(CC(=O)N[C@@H](CC(=O)[O-])C(=O)[O-])c4[nH]c(cc5nc(cc1[nH]2)C(C)=C5CC)c(C)c4C(=O)[O-])[C@@H](CCC(=O)[O-])[C@@H]3C.[Na+].[Na+].[Na+].[Na+] [mono-L-aspartyl chlorin e6]
uptake and accumulation of the administered photosensitizer (fluorescence image vs macrophage antibody staining) [2]: uptaken into and accumulated specifically in the macrophages having infiltrated the islets of Langerhans | blood sugar level compared with control group [3, 4]: blood sugar level had changed at slightly lower stages | progress of Langerhans islet inflammation (pancreatic insulitis) [3, 4]: pancreatic insulitis was suppressed by the PDT | insulin production ([3]; BB rats treated by the photodynamic therapy vs control): tendency to delay the disappearance of insulin production

CC(=O)[O-].CC(=O)[O-].CCc1c(CC)c2cc3nc(cnc4cc(OCCOCCOCCOC)c(OCCOCCOCCOC)cc4ncc4nc(cc1[n-]2)C(CCCO)=C4C)C(C)=C3CCCO.O.[Lu+3] [motexafin lutetium]
uptake into macrophages when each singly administered [1]: selectively be uptaken by and into the macrophages

porfimer sodium
uptake into macrophages when each singly administered [1]: selectively be uptaken by and into the macrophages

tetrasodium salt of mono-L-aspartyl chlorin e6
long-term survivors ([3]; BB rats, 5 mg/kg i.v. plus 664-nm laser, all control rats had died on Day 22): several rats surviving still after Day 35 | survival curve compared with untreated control group ([3]; BB rats, 5 mg/kg i.v., 24 h later 664-nm laser 50 J/cm^2, once): evident prolongation of their survival curve | survival rate (%) on Day 6 after the start of the therapy ([3]; BB rats, 5 mg/kg i.v., 24 h later 664-nm laser 50 J/cm^2 transcutaneously, once, untreated control about 65%): 100%
